# Where two headings read alike, the source gives them in different places.
# How the values were obtained:
# [1] = Radiochemical purity / percent stability of aged radiopharmaceutical solutions by radio-analytical HPLC; conditions: for % stability 2.25 hr: [F-18]BMS 747158-02 12 mCi/mL, 10 vol. % EtOH:water; for % stability 3 hr: [F-18]HX4 16.2 mCi/mL; for RCP % 1.5 hrs post dispensing / RCP % 4 hrs post dispensing: FLT; for % stability 4.0 hr: [F-18]FLT 126.3 mCi/mL (text: 103 mCi/mL); for % stability 5.5 hr: [F-18]FLT 127 mCi/mL
# [2] = tested on: proximal renal tubes in kidneys; conditions: dog, in vivo
# [3] = Excipient screen: protective factor (PF) for [F-18]FLT in argon sparged vials; conditions: in the absence of oxygen, in the presence of argon
# [4] = tested on: proximal renal tubes in kidneys; conditions: rat, in vivo
# [5] = Hydrogen peroxide concentration by peroxide test strips; type: physicochemical
smiles,measurement,setting,value
CC(C)[C@@H](C(=O)N[C@@H](Cc1ccc(OCC[18F])cc1)C(=O)O)n1cc(COc2ccc3nc(S(N)(=O)=O)sc3c2)nn1 [[F-18]VM4-037],radiolytic stability,[1]; oxygen introduced into the sample vials,not undergo radiolysis
same,radiolytic stability,[1]; stored under an atmosphere of He,susceptible to radiolytical decomposition
CC(C)(C)n1ncc(OCc2ccc(COCC[18F])cc2)c(Cl)c1=O [[F-18]BMS 747158-02],% stability 2.25 hr,[1]; Air/O2 (before sparge),91%
same,% stability 2.25 hr,[1]; Argon (reformulated after sparge),12%
O=C(O)/C=C\C(=O)O [Maleic acid],predicted human dose equivalent for renal effect,[2],approximately 15 mg/kg
same,"predicted human dose equivalent for renal effect, total dose",[2],1000 mg
same,stabilization of [F-18]FLT against radiolysis,[3],highly stabilizing
same,predicted human dose equivalent for renal effect,[4],approximately 12.3 mg/kg
same,"predicted human dose equivalent for renal effect, total dose",[4],855 mg
O=[N+]([O-])c1nccn1Cc1cn(C(CO)C[18F])nn1 (centres unmarked) [[F-18]HX4],% stability 3 hr,"[1]; 8 vol. % EtOH:phosphate (text: 10 vol. % EtOH:water), maleic acid + Argon",8.66%
same,% stability 3 hr,"[1]; 8 vol. % EtOH:phosphate (text: 10 vol. % EtOH:water), maleic acid + O2",98.9%
same,% stability 3 hr,"[1]; 8 vol. % EtOH:phosphate, Air (O2)",94.06%
same,% stability 3 hr,"[1]; 8 vol. % EtOH:phosphate, Argon",85.6%
same,radiochemical integrity,"[1]; [F-18]HX4 in 10 vol. % EtOH:water, headspace of oxygen, up to 4 hrs",remained radiochemically intact
same,radiochemical purity,"[1]; [F-18]HX4 in 10 vol. % EtOH:water, sparged with Ar, after 1 hrs",0.28%
same,radiochemical purity,"[1]; [F-18]HX4 in 10 vol. % EtOH:water, sparged with Ar, after 4.0 hrs",0%
Cc1cn([C@H]2C[C@H]([18F])[C@@H](CO)O2)c(=O)[nH]c1=O [[F-18]FLT],stabilization by formulation,"[1]; 8 vol. % EtOH:92 vol. % sodium phosphate (21 mM, pH=4.0-7.0) containing 0.01% (g/ml) maleic acid",very efficient at stabilizing
same,RCP % 1.5 hrs post dispensing,[1]; Air-purged vial,100%
same,RCP % 4 hrs post dispensing,[1]; Air-purged vial,100%
same,RCP % 1.5 hrs post dispensing,[1]; Argon purged vial,62.5%
same,RCP % 4 hrs post dispensing,[1]; Argon purged vial,38.5%
same,oxygen in finished product vial headspace at which FLT stability is improved,[1]; Greer and Adelphi vials,> 10 vol. %
same,radiochemical purity,"[1]; [F-18]FLT 63.2 mCi/mL at EOS, dose vial sparged with Ar, after 1.5 hrs",62.5%
same,radiochemical purity,"[1]; [F-18]FLT 63.2 mCi/mL at EOS, dose vial sparged with Ar, after 4.0 hrs",38.57%
same,radiochemical integrity,"[1]; [F-18]FLT 63.2 mCi/mL at EOS, headspace of oxygen (syringe and sample vial), up to 4 hrs",remained radiochemically intact
same,% stability 2 hr,"[1]; [F-18]FLT 82 mCi/mL, 8 vol. % EtOH:phosphate, 0.01% (g/ml) maleic acid + Air headspace, rt",100%
same,% stability 3.25 hr,"[1]; [F-18]FLT 118.7 mCi/mL, 8 vol. % EtOH:phosphate, maleic acid + Ar headspace",37.9%
same,% stability 4.0 hr,"[1]; 8 vol. % EtOH:phosphate, Ar, no maleic acid",1.5%
same,% stability 4.0 hr,"[1]; 8 vol. % EtOH:phosphate, maleic acid (0.1 mg/mL) and Ar",88.7%
same,% stability 5.5 hr,"[1]; 8 vol. % EtOH:phosphate, syringe sample, O2 (no headspace), no maleic acid",19.68%
same,% stability 5.5 hr,"[1]; 8 vol. % EtOH:phosphate, syringe sample, maleic acid + O2 (no headspace)",97.13%
same,% stability 5.5 hr,"[1]; 8 vol. % EtOH:phosphate, vial, Air headspace, no maleic acid",≥ 98%
same,% stability 5.5 hr,"[1]; 8 vol. % EtOH:phosphate, vial, maleic acid + Air headspace (rt)",≥ 98%
same,radiochemical integrity,"[1]; [F-18]FLT 129.5 mCi/mL at EOS, control dose vial with headspace of oxygen",remained radiochemically intact
same,radiochemical integrity,"[1]; [F-18]FLT 129.5 mCi/mL at EOS, syringe with headspace of oxygen (20.95 vol. %)",remained radiochemically intact
same,radiochemical purity,"[1]; [F-18]FLT 129.5 mCi/mL at EOS, syringe without headspace of oxygen, after 2.6 hrs",66.7%
same,radiochemical purity,"[1]; [F-18]FLT 129.5 mCi/mL at EOS, syringe without headspace of oxygen, after 3.8 hrs",32.7%
same,% stability 3.5 hr,"[1]; [F-18]FLT 197.1 mCi/mL, 8 vol. % EtOH:phosphate, dose vial, air/O2 only",82.6%
same,stability (FIG. 2),[1]; in the presence of argon without maleic acid,decomposes
same,stability (FIG. 1),[1]; in the presence of argon without oxygen,decomposes
same,stability (FIG. 2),[1]; in the presence of maleic acid in argon,stabilized
same,stability (FIG. 1),[1]; in the presence of oxygen,stabilized
same,stability (FIG. 4),[1]; in the presence of oxygen and maleic acid,further stabilized
same,stability (FIG. 4),"[1]; in the presence of oxygen, once the oxygen is consumed",decomposes
same,period of stability,"[1]; oxygen and maleic acid formulation, in some instances",about 18 hours
same,strength up to which samples did not contain radiolyzed products,[1]; samples spiked with O2,up to 197 mCi/mL
same,hydrogen peroxide concentration,"[5]; FLT sample 126.3 mCi/mL, containing maleic acid (argon)",0 ppm
same,hydrogen peroxide concentration,"[5]; FLT sample 126.3 mCi/mL, headspace of argon",0 ppm
same,hydrogen peroxide concentration,"[5]; FLT sample 127 mCi/mL, headspace of oxygen",5 ppm
same,hydrogen peroxide concentration,"[5]; FLT sample 127 mCi/mL, headspace of oxygen and maleic acid",0.5-2.0 ppm

# From US9539349B2, “Formulation, apparatus and method for stabilizing radiopharmaceuticals” (Siemens Medical Solutions USA, Inc., priority 2010, dated 2017)
